Assay results reported in article PMC8222254, “Self-assembly of an anion receptor with metal-dependent kinase inhibition and potent in vitro anti-cancer properties” (Nature Communications, 2021).
Where “and” joins values, the source holds several entries; their conditions need not be identical. Equal values may be shown once.

Experiments:
Assay in all cases: Kinase inhibition screen, cell-free 33P ATP assay at 10 μM
Assay type in all cases: biochemical
[1] = biological target: T1, 140 purified human kinases (Homo sapiens, UniProt Q8TD08)
T1 sequence (Q8TD08 1-544): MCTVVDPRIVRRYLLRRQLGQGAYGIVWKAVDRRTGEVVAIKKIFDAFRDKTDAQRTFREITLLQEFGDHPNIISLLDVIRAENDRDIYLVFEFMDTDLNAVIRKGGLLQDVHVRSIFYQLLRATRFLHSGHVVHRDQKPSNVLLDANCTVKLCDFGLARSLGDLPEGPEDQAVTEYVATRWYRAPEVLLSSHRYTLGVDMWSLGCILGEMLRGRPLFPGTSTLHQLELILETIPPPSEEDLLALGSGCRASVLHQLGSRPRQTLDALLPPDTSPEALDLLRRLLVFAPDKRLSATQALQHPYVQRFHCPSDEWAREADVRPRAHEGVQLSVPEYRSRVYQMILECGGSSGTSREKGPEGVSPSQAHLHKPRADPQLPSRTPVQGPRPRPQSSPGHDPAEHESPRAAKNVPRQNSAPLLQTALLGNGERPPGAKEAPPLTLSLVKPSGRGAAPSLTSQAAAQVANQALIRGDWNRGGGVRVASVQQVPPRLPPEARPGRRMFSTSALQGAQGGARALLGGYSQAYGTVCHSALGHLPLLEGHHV
Summary of the method: (§1)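 Each complex tested in duplicate at 10 μM; cell-free radiometric assay using ^33P ATP on purified enzymes. Hits mapped by HGNC symbol onto the kinome tree.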

[2] = biological target: T2, 140 purified human kinases (Homo sapiens, UniProt O15264); details: p38d MAPK
T2 sequence (O15264 1-365): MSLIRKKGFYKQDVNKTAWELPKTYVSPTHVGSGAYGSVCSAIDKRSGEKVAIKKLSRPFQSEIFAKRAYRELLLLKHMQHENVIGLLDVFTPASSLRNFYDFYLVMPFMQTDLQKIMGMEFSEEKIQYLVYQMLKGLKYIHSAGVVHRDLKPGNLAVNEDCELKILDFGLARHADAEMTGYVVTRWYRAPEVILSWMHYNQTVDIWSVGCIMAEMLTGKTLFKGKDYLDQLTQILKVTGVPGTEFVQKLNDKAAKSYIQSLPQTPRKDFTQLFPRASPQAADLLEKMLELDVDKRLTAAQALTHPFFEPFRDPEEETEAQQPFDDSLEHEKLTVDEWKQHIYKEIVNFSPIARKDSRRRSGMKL
Summary of the method: as §1

[3] = biological target: 140 purified human kinases (Homo sapiens, UniProt Q14012); details: for % Activity inhibition Mean / % Activity inhibition Run 1 / % Activity inhibition Run 2 / % Activity remaining Run 1 / % Activity remaining Run 2: 10 µM
Summary of the method: as §1

[4] = biological target: T3, 140 purified human kinases (Homo sapiens, UniProt P29323)
T3 sequence (P29323 19-1055): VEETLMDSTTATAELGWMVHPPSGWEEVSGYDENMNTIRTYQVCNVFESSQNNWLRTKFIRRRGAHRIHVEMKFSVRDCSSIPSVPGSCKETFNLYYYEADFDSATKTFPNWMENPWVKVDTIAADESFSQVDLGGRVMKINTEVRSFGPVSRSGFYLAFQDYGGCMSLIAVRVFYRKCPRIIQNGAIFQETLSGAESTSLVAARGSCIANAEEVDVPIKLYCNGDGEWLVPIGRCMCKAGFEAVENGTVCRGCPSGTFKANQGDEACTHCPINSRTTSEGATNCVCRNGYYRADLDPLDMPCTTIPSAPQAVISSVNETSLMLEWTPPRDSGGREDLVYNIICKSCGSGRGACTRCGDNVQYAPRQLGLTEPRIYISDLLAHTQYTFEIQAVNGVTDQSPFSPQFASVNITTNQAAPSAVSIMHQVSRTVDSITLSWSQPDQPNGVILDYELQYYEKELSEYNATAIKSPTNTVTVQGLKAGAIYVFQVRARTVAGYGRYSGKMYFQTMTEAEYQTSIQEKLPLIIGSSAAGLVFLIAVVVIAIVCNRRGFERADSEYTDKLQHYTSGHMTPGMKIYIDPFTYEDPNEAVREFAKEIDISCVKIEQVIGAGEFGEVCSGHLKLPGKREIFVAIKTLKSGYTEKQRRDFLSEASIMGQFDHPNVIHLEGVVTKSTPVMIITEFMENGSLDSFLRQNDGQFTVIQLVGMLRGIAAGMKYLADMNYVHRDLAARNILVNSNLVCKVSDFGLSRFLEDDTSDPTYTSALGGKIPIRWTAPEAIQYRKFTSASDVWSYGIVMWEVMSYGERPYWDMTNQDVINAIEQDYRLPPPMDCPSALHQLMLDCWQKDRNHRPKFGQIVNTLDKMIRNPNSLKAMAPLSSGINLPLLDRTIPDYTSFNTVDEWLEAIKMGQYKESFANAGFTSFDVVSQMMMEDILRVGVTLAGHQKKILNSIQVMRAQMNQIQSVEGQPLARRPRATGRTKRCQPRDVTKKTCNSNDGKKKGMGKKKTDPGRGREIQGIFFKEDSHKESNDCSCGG
Summary of the method: as §1

[5] = biological target: 140 purified human kinases (Homo sapiens, UniProt O96013)
Summary of the method: as §1

[6] = biological target: 140 purified human kinases (Homo sapiens, UniProt Q9P289)
Summary of the method: as §1

Sequence of 140 purified human kinases (Homo sapiens, UniProt O96013) (O96013 whole entry): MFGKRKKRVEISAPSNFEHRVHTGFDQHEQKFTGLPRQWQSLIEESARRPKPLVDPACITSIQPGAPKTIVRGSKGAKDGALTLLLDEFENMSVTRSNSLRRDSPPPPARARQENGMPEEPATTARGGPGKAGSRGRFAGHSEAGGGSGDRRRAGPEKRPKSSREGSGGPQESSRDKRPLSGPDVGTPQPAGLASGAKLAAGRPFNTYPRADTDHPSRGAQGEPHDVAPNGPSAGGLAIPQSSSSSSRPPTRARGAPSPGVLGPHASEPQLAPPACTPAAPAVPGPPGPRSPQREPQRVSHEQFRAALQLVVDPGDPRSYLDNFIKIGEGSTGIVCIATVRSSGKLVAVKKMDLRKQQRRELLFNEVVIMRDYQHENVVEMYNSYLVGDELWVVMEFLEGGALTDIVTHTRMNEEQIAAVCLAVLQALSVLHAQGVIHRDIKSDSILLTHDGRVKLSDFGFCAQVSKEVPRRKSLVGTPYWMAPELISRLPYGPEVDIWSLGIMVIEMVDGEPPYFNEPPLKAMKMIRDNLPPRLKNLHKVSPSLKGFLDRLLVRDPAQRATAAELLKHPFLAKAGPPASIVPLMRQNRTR
Sequence of 140 purified human kinases (Homo sapiens, UniProt Q9P289) (Q9P289 whole entry): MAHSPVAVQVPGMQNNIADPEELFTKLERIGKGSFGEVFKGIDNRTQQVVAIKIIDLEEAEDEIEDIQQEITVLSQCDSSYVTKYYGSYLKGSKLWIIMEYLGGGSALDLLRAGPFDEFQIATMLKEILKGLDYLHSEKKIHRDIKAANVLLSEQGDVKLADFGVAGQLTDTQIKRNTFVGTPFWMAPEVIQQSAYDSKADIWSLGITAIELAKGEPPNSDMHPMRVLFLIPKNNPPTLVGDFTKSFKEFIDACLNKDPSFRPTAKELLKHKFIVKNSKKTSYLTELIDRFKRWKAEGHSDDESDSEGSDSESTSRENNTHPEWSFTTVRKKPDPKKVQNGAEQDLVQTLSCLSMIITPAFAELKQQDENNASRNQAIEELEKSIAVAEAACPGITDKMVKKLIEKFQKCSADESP
Sequence of 140 purified human kinases (Homo sapiens, UniProt Q14012) (Q14012 whole entry): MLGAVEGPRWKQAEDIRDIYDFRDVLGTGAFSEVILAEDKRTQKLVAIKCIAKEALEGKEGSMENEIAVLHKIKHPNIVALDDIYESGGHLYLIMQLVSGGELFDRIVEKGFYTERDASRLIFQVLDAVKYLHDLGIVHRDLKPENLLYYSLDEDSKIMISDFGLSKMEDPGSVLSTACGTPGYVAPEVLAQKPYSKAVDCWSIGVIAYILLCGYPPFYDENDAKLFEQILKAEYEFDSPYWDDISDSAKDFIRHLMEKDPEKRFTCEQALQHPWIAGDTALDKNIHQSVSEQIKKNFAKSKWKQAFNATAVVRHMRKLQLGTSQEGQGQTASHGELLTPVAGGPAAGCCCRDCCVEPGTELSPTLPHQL

Structure (SMILES): [Cu+2].[Cu+2].[Cu+2].c1ccc(-c2csc(NCCN(CCNc3nc(-c4ccccn4)cs3)CCNc3nc(-c4ccccn4)cs3)n2)nc1.c1ccc(-c2csc(NCCN(CCNc3nc(-c4ccccn4)cs3)CCNc3nc(-c4ccccn4)cs3)n2)nc1 [[L2Cu3]6+]
- % Activation, Mean value ([1]; ERK8): 27%
- % Inhibition Run 1 ([1]; ERK8): -16.9%
- % Inhibition Run 2 ([1]; ERK8): -37.3%
- % Inhibition, Mean ([1]; ERK8): -27%
- mean % activity ([1]; ERK8): 127%
- % activity ([1]; ERK8, Run 1): 116.9%
- % activity ([1]; ERK8, Run 2): 137.3%
- % Activity Run 1 ([1]; ERK8, 10 µM): 116.90%
- % Activity Run 2 ([1]; ERK8, 10 µM): 137.30%
- % Activation, Mean value [2]: 14%
- % Inhibition Run 1 [2]: -9.9%
- % Inhibition Run 2 [2]: -17.9%
- % Inhibition, Mean [2]: -14%
- mean % activity [2]: 114%
- % activity ([2]; Run 1): 109.9%
- % activity ([2]; Run 2): 117.9%
- % Activity Run 1 ([2]; 10 µM): 109.90%
- % Activity Run 2 ([2]; 10 µM): 117.90%
- % Inhibition Run 1 ([3]; CAMK1): 94.9%
- % Inhibition Run 2 ([3]; CAMK1): 96.1%
- % Inhibition, Mean ([3]; CAMK1): 96%
- mean % activity ([3]; CAMK1): 4.5%
- % activity ([3]; CAMK1, Run 1): 5.1%
- % activity ([3]; CAMK1, Run 2): 3.9%
- % Activity inhibition Mean ([3]; CAMK1): 95.5%
- % Activity inhibition Run 1 ([3]; CAMK1): 94.9%
- % Activity inhibition Run 2 ([3]; CAMK1): 96.1%
- % Activity remaining Run 1 ([3]; CAMK1): 5.10%
- % Activity remaining Run 2 ([3]; CAMK1): 3.90%
- % Inhibition Run 1 ([4]; EPH-B2): 57.3%
- % Inhibition Run 2 ([4]; EPH-B2): 57.8%
- % Inhibition, Mean ([4]; EPH-B2): 58%
- mean % activity ([4]; EPH-B2): 42%
- % activity ([4]; EPH-B2, Run 1): 42.7%
- % activity ([4]; EPH-B2, Run 2): 42.2%
- % Inhibition Run 1 ([5]; PAK4): 23.3%
- % Inhibition Run 2 ([5]; PAK4): 36.6%
- % Inhibition, Mean ([5]; PAK4): 30%
- mean % activity ([5]; PAK4): 70%
- % activity ([5]; PAK4, Run 1): 76.7%
- % activity ([5]; PAK4, Run 2): 63.4%
- % Inhibition Run 1 ([6]; MST4): 74.5%
- % Inhibition Run 2 ([6]; MST4): 70.2%
- % Inhibition, Mean ([6]; MST4): 72%
- mean % activity ([6]; MST4): 28%
- % activity ([6]; MST4, Run 1): 25.5%
- % activity ([6]; MST4, Run 2): 29.8%

Structure (SMILES): CC(=O)[O-].CC(=O)[O-].CC(=O)[O-].CC(=O)[O-].CC(=O)[O-].CC(=O)[O-].[Zn+2].[Zn+2].[Zn+2].c1ccc(-c2csc(NCCN(CCNc3nc(-c4ccccn4)cs3)CCNc3nc(-c4ccccn4)cs3)n2)nc1.c1ccc(-c2csc(NCCN(CCNc3nc(-c4ccccn4)cs3)CCNc3nc(-c4ccccn4)cs3)n2)nc1 [[L2Zn3]6+]
- % Inhibition, Mean ([1]; ERK8): 15%
- % Inhibition, Run 1 / Run 2 ([1]; ERK8): 15%
- mean % activity ([1]; ERK8): 85%
- % activity ([1]; ERK8, duplicate runs): 86% and 85%
- % Activation, Mean value [2]: 4.4%
- % Inhibition, Mean [2]: -4.4%
- % Inhibition, Run 1 / Run 2 [2]: -6% and -2.8%
- mean % activity [2]: 104%
- % activity ([2]; duplicate runs): 106% and 103%
- % Inhibition, Mean ([3]; CAMK1): 96%
- % Inhibition, Run 1 / Run 2 ([3]; CAMK1): 94% and 98%
- mean % activity ([3]; CAMK1): 3.6%
- % Activity inhibition Mean ([3]; CAMK1): 96.0%
- % Activity inhibition Run 1 ([3]; CAMK1): 94%
- % Activity inhibition Run 2 ([3]; CAMK1): 98%
- % Activity remaining Run 1 ([3]; CAMK1): 6%
- % Activity remaining Run 2 ([3]; CAMK1): 2%
- % activity ([3]; CAMK1, duplicate runs): 5.6% and 1.6%
- % Inhibition, Mean ([4]; EPH-B2): 88%
- % Inhibition, Run 1 / Run 2 ([4]; EPH-B2): 89% and 87%
- mean % activity ([4]; EPH-B2): 12%
- % Activity inhibition Mean ([4]; EPH-B2, 10 µM): 88.0%
- % Activity inhibition Run 1 ([4]; EPH-B2, 10 µM): 89%
- % Activity inhibition Run 2 ([4]; EPH-B2, 10 µM): 87%
- % Activity remaining Run 1 ([4]; EPH-B2, 10 µM): 11%
- % Activity remaining Run 2 ([4]; EPH-B2, 10 µM): 13%
- % activity ([4]; EPH-B2, duplicate runs): 11% and 13%
- % Activation, Mean value ([5]; PAK4): 20%
- % Inhibition, Mean ([5]; PAK4): -20%
- mean % activity ([5]; PAK4): 120%
- % Activity Run 1 ([5]; PAK4, 10 µM): 110.0%
- % Activity Run 2 ([5]; PAK4, 10 µM): 130.0%
- % activity ([5]; PAK4, duplicate runs): 110% and 130%
- % Inhibition, Mean ([6]; MST4): 23%
- % Inhibition, Run 1 / Run 2 ([6]; MST4): 26% and 19%
- mean % activity ([6]; MST4): 77%
- % activity ([6]; MST4, duplicate runs): 74% and 81%
